For seven molecules, IC50 results are on record in patent publication US20250122174A1 (Shenzhen Yuanli Shenwan Innovative Medicine Co., Ltd., priority 2022, published 2025).

Sequence of HPK1 (Q92918 1-346 limits assumed): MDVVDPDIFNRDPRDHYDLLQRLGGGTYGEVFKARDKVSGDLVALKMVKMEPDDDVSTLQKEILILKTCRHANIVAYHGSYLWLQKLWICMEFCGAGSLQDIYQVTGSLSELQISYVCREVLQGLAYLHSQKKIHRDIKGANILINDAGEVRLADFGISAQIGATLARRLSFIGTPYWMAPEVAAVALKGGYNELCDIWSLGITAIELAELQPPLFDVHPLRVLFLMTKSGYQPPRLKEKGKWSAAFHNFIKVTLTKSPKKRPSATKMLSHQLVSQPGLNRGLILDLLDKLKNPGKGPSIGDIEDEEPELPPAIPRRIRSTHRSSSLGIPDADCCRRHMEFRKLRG

For the assay, the target named is HPK1 (Homo sapiens (Human), UniProt Q92918). Kind of assay: HPK1 Inhibition Assay (ADP-Glo kinase assay). The format is biochemical. As to conditions: ATP 10 μM. A digest of the protocol:
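ADP-Glo luminescence read-out after 1 h room-temperature kinase reaction with 10 μM ATP and 0.1 μg/ml MBP. Recombinant human HPK1 at 7.5 ng/μl; buffer 40 mM Tris pH 7.5, 20 mM MgCl2. Compounds serially diluted 5-fold over 10 points from 10 mM DMSO stock.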
For orientation: ADP-Glo first removes unused ATP, then detects ADP through luciferase.
On to `N#Cc1ccncc1-c1ccc(NC(=O)c2ccc(=O)n(-c3c(F)cccc3F)n2)c(N2CCC(O)CC2)c1` [Example 349, N-(4-(4-cyanopyridin-3-yl)-2-(4-hydroxypiperidin-1-yl)phenyl)-1-(2,6-difluorophenyl)-6-oxo-1,6-dihydropyridazine-3-carboxamide], for which the IC50 (usually the concentration needed to halve the response being measured) is under 100 nM.

In the case of `N#Cc1ccncc1-c1ccc(NC(=O)c2ccc(=O)n(-c3c(F)cccc3F)n2)c(N2CCN[C@H](CO)C2)c1` [Example 350, (S)-N-(4-(4-cyanopyridin-3-yl)-2-(3-(hydroxymethyl)piperazin-1-yl)phenyl)-1-(2,6-difluorophenyl)-6-oxo-1,6-dihydropyridazine-3-carboxamide], the IC50 is under 100 nM. Turning to `N#Cc1ccncc1-c1ccc(NC(=O)c2ccc(=O)n(-c3c(F)cccc3F)n2)c(N2C[C@H](N)C[C@H]2CO)c1` [Example 351, N-(2-((2S,4R)-4-amino-2-(hydroxymethyl)pyrrolidin-1-yl)-4-(4-cyanopyridin-3-yl)phenyl)-1-(2,6-difluorophenyl)-6-oxo-1,6-dihydropyridazine-3-carboxamide], the IC50 was under 100 nM.

As for `N#Cc1ccncc1-c1ccc(NC(=O)c2ccc(=O)n(-c3c(F)cccc3F)n2)c(N2CCC(N)(CO)CC2)c1` [Example 352, N-(2-(4-amino-4-(hydroxymethyl)piperidin-1-yl)-4-(4-cyanopyridin-3-yl)phenyl)-1-(2,6-difluorophenyl)-6-oxo-1,6-dihydropyridazine-3-carboxamide], the IC50 was under 100 nM. To `N#Cc1ccncc1-c1ccc(NC(=O)c2ccc(=O)n(-c3c(F)cccc3F)n2)c(N2CCC(F)(F)[C@@H](N)C2)c1` [Example 357, (S)-N-(2-(3-amino-4,4-difluoropiperidin-1-yl)-4-(4-cyanopyridin-3-yl)phenyl)-1-(2,6-difluorophenyl)-6-oxo-1,6-dihydropyridazine-3-carboxamide] belongs under 100 nM; to `N#Cc1ccncc1-c1ccc(NC(=O)c2ccc(=O)n(-c3c(F)cccc3F)n2)c(N2CCC(NCCO)CC2)c1` [Example 360, N-(4-(4-cyanopyridin-3-yl)-2-(4-((2-hydroxyethyl)amino)piperidin-1-yl)phenyl)-1-(2,6-difluorophenyl)-6-oxo-1,6-dihydropyridazine-3-carboxamide], under 100 nM. To `N#Cc1ccncc1-c1ccc(NC(=O)c2ccc(=O)n(-c3c(F)cccc3Cl)n2)c(N2C[C@@H](N)C[C@H]2CO)c1` [Example 361, N-(2-((2S,4S)-4-amino-2-(hydroxymethyl)pyrrolidin-1-yl)-4-(4-cyanopyridin-3-yl)phenyl)-1-(2-chloro-6-fluorophenyl)-6-oxo-1,6-dihydropyridazine-3-carboxamide] belongs under 100 nM.
